“Also recorded” adds a separate entry of the source.
Key:
iNOS mRNA = iNOS mRNA expression in brain tissues (RT-PCR); type: in vivo, mouse; conditions: wild-type mice, 3 hours after treatment, vs saline controls
Procedure: At 3 hours after treatment, mice were anesthetized and perfused via cardiac puncture with 0.1 M PBS, pH 7.4. The MRNA was isolated using the Micro-FastTrack 2.0 Kit (Invitrogen, Groningen, Netherlands) according to the manufacturer's instructions. The purified MRNA (5 μg) was subjected to reverse-transcription into first strand cDNA in each 20 μL of reaction mixture using the SuperScript III First-Strand Synthesis System for RT-PCR (Invitrogen) according to the manufacturer's instruction. A 25 μL PCR reaction contained 5 μL first strand cDNA, 0.1 U Taq DNA polymerase (Invitrogen), 10 mM 10×PCR buffer, 1.5 mM MgCl2, 2.5 mM dNTP and 10 pmol of each specific primer. PCR samples were subjected to the following conditions: 35 cycles for iNOS (94° C.: 1 minute; 65° C.: 1 minute; 72° C.: 1 minute), 32 cycles for β-actin (94° C.: […]; 55° C.: 30 s; 72° C.: 10 minutes), on a thermocycle (Perkin-Elmer). The primers with the target gene sequences were synthesized by Invitrogen. The primer sequence iNOS was 5′-CTGATGGTCAAGATCCAG-A-GGTCT-3′ (forward) and 5′-[…]-CTCT-3′(reverse), and the primer for β-actin was 5′-TGTTAC-CAACTGGGACGACA-3′ (forward) and 5′-CTGGGTCATCTT-TTCACCGT-3′ (reverse). After amplification, PCR products were subjected to 1% agarose gel electrophoresis, and visualized by ethidium bromide staining. The relative density of bands was analyzed under ultraviolet light (Bio-Rad). Experiments were repeated three times for reproducibility.

TNF α = TNF α levels in serum (mouse TNF-α ELISA); type: in vivo
Procedure: Mice were treated with 20 mg/kg ADR or saline as control. Blood samples were collected at 1, 3, 6, 9, 24 hours and allowed to clot at 2-8° C. overnight. Serum samples were used to measure TNF α levels, according to the mouse enzyme-linked immunosorbent assay following the manufacturers' instructions (mouse TNF-α/TNFSF1A immunoassay, R&D Systems, Minneapolis, MN). The TNF α concentration in the sample was calculated from a recombinant mouse TNF α standard curve. The minimum detection limit is typically less than 5.1 pg/mL.
8-week-old male B6C3 mice (25-30 g) were kept under standard conditions. Mice were injected with a single intraperitoneal (i.p.) treatment with adriamycin (doxorubicin hydrochloride, 20 mg/kg), TNF-α, anti-mouse TNF-antibody (40 ng/kg), dipropylenetriamine NONOate (DPTA NONOate, […]), lipopolysaccharide (LPS 1 mg/kg), NG-nitro-L-arginine-methyl esther (L-NAME, 10 mg/kg) or pre-immune IgG.
Mice were treated with 20 mg/kg ADR, TNF-α, anti-mouse TNF-antibody, dipropylenetriamine NONOate, lipopolysaccharide, NG-nitro-L-arginine-methyl esther or pre-immune IgG, as well as saline as control. Blood samples were collected at 3 hours after ADR treatment and allowed to clot at 2-8° C. overnight. Serum samples were used to measure TNF levels, according to the mouse enzyme-linked immunosorbent assay following the manufacturers' instructions (mouse TNF-α/TNFSF1A immunoassay, R&D Systems, Minneapolis, Minn.). The TNF concentration in the sample was calculated from a recombinant mouse TNF standard curve. The minimum detection limit is typically less than 5.1 pg/mL.

MnSOD = conditions: wild-type mice
[1] = test system: mitochondrial respiration complex I; test: Brain mitochondrial respiration, complex I (pyruvate + malate), respiration control ratio; conditions: iNOSKO mice, 3 hours after treatment
Procedure: Mice were perfused via cardiac puncture with cold mitochondrial isolation buffer, the brain promptly removed, the cerebellum dissected away, and mitochondria immediately isolated from the freshly brain by a modification of the method described by Mattiazzi et al. (2002). Brain mitochondria were isolated in cold mitochondrial isolation buffer, containing 0.07 M sucrose, 0.22 M mannitol, 20 mM HEPES, 1 mM EGTA, and 1% bovine serum albumin, pH 7.2. Tissues were homogenized with a Dounce homogenizer and centrifuged at 1,500×g at 4° C. for 5 minutes before transferring the supernatant. The pellets were resuspended and centrifuged at 1,500×g at 4° C. for 5 minutes. The supernatants were combined and centrifuged at 13,500×g at 4° C. for 10 minutes. Mitochondrial pellets were washed twice and finally resuspended in 50-100 μL cold isolation buffer. Protein concentration of isolated mitochondria was determined by the Bradford assay (Bradford, 1976). The final protein concentration was 20-40 mg/ml.
Mitochondrial respiration was determined using Clark-type polarographic oxygen sensors (Hansatech Instruments, Kings Lynn, Norfolk, UK) to measure the rate of oxygen consumption. Freshly isolated mitochondria were suspended in respiration buffer at a concentration of 0.5 mg mitochondrial protein per mL of respiration buffer, which consists of 0.25 M sucrose, 50 mM HEPES, 1 mM EGTA, 10 mM KH2PO4, and 2 mM MgCl2, pH 7.4. Oxygen consumption was measured with either pyruvate (10 mM) plus malate (10 mM) or succinate (10 mM) as substrates for respiration from complex I or complex II in the absence of exogenous ADP (state II) and after addition of 300 mM ADP (state III respiration). Rotenone (5 μM) was added to the reaction to inhibit respiration from complex I when succinate was used as the substrate. […] FCCP (1 μM), an uncoupling agent, was added as a control of respiration. Respiration control ratios (RCR) were calculated as the ratios of state III and state II respiration as described previously by Estabrook (1967). The unit for state II rate and state III rate is nmole/min/mg protein.
Mice were perfused via cardiac puncture with cold mitochondrial isolation buffer, the brain promptly removed, the cerebellum dissected away, and mitochondria immediately isolated from the freshly brain by a modification of the method described by Mattiazzi et al. (2002). Brain mitochondria were isolated in cold mitochondrial isolation buffer, containing 0.07 M sucrose, 0.22 M mannitol, 20 mM HEPES, 1 mM EGTA, and 1% bovine serum albumin, pH 7.2. Tissues were homogenized with a Dounce homogenizer and centrifuged at 1,500×g at 4° C. for 3 minutes before transferring the supernatant fluid. The pellets were resuspended and centrifuged at 1,500×g at 4° C. for 3 minutes. The supernatant fluids were combined and centrifuged at 1,500×g at 4° C. for 3 minutes. These supernatant fluids were then centrifuged at 13,500×g at 4° C. for 10 minutes. Mitochondrial pellets were washed twice and finally resuspended in 50-100 μL cold isolation buffer. Protein concentration of isolated mitochondria was determined by the Bradford assay (Bradford, 1976).
Mitochondrial respiration was determined using Clark-type polarographic oxygen sensors (Hansatech Instruments, UK) to measure the rate of oxygen consumption. Freshly-isolated mitochondria were suspended in respiration buffer at a concentration of 0.5 mg mitochondrial protein/mL respiration buffer, which consisted of 0.25 M sucrose, 50 mM HEPES, 1 mM EGTA, 10 mM KH2PO4, 2 mM MgCl2 and 0.2% BSA, pH 7.4. Oxygen consumption was measured with either pyruvate (10 mM) or pyruvate plus malate (10 mM) as substrates for respiration from complex I, in the absence of exogenous ADP (state II), and after addition of 300 mM ADP (state III respiration). […] FCCP (1 μM), an uncoupling agent, was added as a control respiration. Respiration control ratios (RCR) were calculated as the ratios of state III and state II respiration.

In the case of TNF-α, the “iNOS mRNA levels in brain tissues” value (iNOS mRNA) is reported as “significantly increased” and the “TNF α level in serum (circulating TNF α)” value (TNF α; wild-type mice, 3 hours after single i.p. treatment, vs saline control) is reported as “increased”.

With COC(=O)[C@@H](N)CCCNC(=N)N[N+](=O)[O-] [L-NAME, NG-nitro-L-arginine-methyl esther] the “MnSOD activity in brain vs saline- or ADR-treated mice” value (MnSOD; L-NAME 10 mg/kg i.p.) was “led to increased MnSOD activity” and the “Effect on ADR-induced MnSOD inactivation” value (MnSOD; L-NAME with ADR) was “prevented MnSOD inactivation”.

NCCCN(CCCN)/[N+]([O-])=N/O [DPTA NONOate, dipropylenetriamine NONOate] was tested, and the “TNF-α level in serum (circulating TNF-α)” value (TNF α; iNOSKO mice, 3 hours after treatment) was “did not lead to changes; also recorded: had no effect” and the “Brain mitochondrial respiration complex I (RCR)” value [1] was “significantly lowered; also recorded: causes mitochondrial dysfunction”.

With lipopolysaccharide [LPS] the “iNOS mRNA levels in brain tissues” value (iNOS mRNA) was “significantly increased”.
